Measurements as given in ChEMBL document CHEMBL5505999, “Discovery of anti-inflammatory agents from 3, 4-dihydronaphthalene-1(2H)-one derivatives by inhibiting NLRP3 inflammasome activation” (Eur J Med Chem, 2024).
Activity calls are given as the source filed them. No cut-off for these calls is given here.

Tests used:
[1] = molecular target: NACHT, LRR and PYD domains-containing protein 3 (Mus musculus) (UniProt Q8R4B8); experiment: Inhibition of NLRP3 inflammasome activation in mouse RAW264.7 cells assessed as reduction in NLRP3 expression at 1.5 to 6.0 uM preincubated with compound for 2 hrs followed by LPS addition and measured after 30 mins by Western blot analysis; assay type: cell-based; details: dose 1.5-6 µM, time 2.5 hrs
[2] = molecular target: NACHT, LRR and PYD domains-containing protein 3 (Mus musculus) (UniProt Q8R4B8); experiment: Inhibition of NLRP3 inflammasome activation in LPS-induced mouse RAW264.7 cells assessed as reduction in ROS production by measuring intracellular ROS level at 6.0 uM incubated for 24 hrs by DCFH-DA staining based flow cytometric analysis (reference value: 42.0%); assay type: cell-based; parameters: scale not given: the % may be the effect or the level left
[3] = molecular target: NACHT, LRR and PYD domains-containing protein 3 (Mus musculus) (UniProt Q8R4B8); experiment: Inhibition of NLRP3 inflammasome activation in LPS-induced mouse RAW264.7 cells assessed as reduction in NO production incubated for 24 hrs by Griess reagent based assay; assay type: cell-based; details: dose 1.5-6 µM
RAW264.7 [4] = experiment: Anti-inflammatory activity in mouse RAW264.7 cells assessed as inhibition of LPS-induced IL-18 production pretreated with compound for 2 hrs followed by LPS addition for 22 hrs and measured 30 mins after LPS addition by ELISA; assay type: functional, cell-based; details: dose 1.5-6 µM, time 24.5 hrs
RAW264.7 [5] = experiment: Anti-inflammatory activity in mouse RAW264.7 cells assessed as inhibition of LPS-induced IL-6 production pretreated with compound for 2 hrs followed by LPS addition and measured after 22 hrs by ELISA; assay type: functional, cell-based; details: dose 1.5-6 µM, time 24.0 hrs
RAW264.7 [6] = experiment: Inhibition of NF-kappaB signaling pathway in mouse RAW264.7 cells assessed as reduction in p65 phosphorylation preincubated with compound for 2 hrs followed by LPS addition and measured after 22 hrs by Western blot analysis; assay type: cell-based; details: dose 1.5-6 µM, time 24.0 hrs
[7] = Induction of apoptosis in mouse RAW264.7 cells assessed as viable cells at 1.5 uM by Annexin V-FITC/PI staining based flow cytometric analysis (reference value: 96.4%); assay type: toxicity, cell-based; details: read-out: Activity
RAW264.7 [8] = experiment: Inhibition of NF-kappaB signaling pathway in mouse RAW264.7 cells assessed as reduction in IkappaBalpha phosphorylation preincubated with compound for 2 hrs followed by LPS addition and measured after 22 hrs by Western blot analysis; assay type: cell-based; details: dose 1.5-6 µM, time 24.0 hrs
[9] = molecular target: Transcription factor p65 (Mus musculus) (UniProt Q04207); experiment: Inhibition of NF-kappaB p65 nuclear translocation in LPS-induced mouse RAW264.7 cells assessed as increase in p65 subunits in cytoplasm at 6.0 uM preincubated with compound for 2 hrs followed by LPS addition and measured after 2 hrs by DAPI staining based Zeiss laser confocal microscopic analysis; assay type: cell-based; details: time 4.0 hrs
RAW264.7 [10] = experiment: Anti-inflammatory activity in mouse RAW264.7 cells assessed as inhibition of LPS-induced TNF-alpha production pretreated with compound for 2 hrs followed by LPS addition and measured after 22 hrs by ELISA; assay type: functional, cell-based; details: dose 1.5-6 µM, time 24.0 hrs
RAW264.7 [11] = experiment: Induction of apoptosis in mouse RAW264.7 cells assessed as apoptotic cells at 6.0 uM by Annexin V-FITC/PI staining based flow cytometric analysis (reference value: 1.9%); assay type: toxicity, cell-based; details: raw264.7, 6 µM
[12] = molecular target: NACHT, LRR and PYD domains-containing protein 3 (Mus musculus) (UniProt Q8R4B8); experiment: Inhibition of NLRP3 inflammasome activation in mouse RAW264.7 cells assessed as reduction in ASC expression at 1.5 to 6.0 uM preincubated with compound for 2 hrs followed by LPS addition and measured after 30 mins by Western blot analysis; assay type: cell-based; details: dose 1.5-6 µM, time 2.5 hrs
[13] = Induction of apoptosis in mouse RAW264.7 cells assessed as viable cells at 6.0 uM by Annexin V-FITC/PI staining based flow cytometric analysis (reference value: 96.4%); assay type: toxicity, cell-based; details: read-out: Activity
[14] = molecular target: NACHT, LRR and PYD domains-containing protein 3 (Mus musculus) (UniProt Q8R4B8); experiment: Inhibition of NLRP3 inflammasome activation in LPS-induced mouse RAW264.7 cells assessed as reduction in ROS production by measuring intracellular ROS level at 3.0 uM incubated for 24 hrs by DCFH-DA staining based flow cytometric analysis (reference value: 42.0%); assay type: cell-based; parameters: scale not given: the % may be the effect or the level left
RAW264.7 [15] = experiment: Anti-inflammatory activity in mouse RAW264.7 cells assessed as inhibition of LPS-induced IL-1beta production pretreated with compound for 2 hrs followed by LPS addition for 22 hrs and measured 30 mins after LPS addition by ELISA; assay type: functional, cell-based; details: dose 1.5-6 µM, time 24.5 hrs
[16] = Induction of apoptosis in mouse RAW264.7 cells assessed as viable cells at 3.0 uM by Annexin V-FITC/PI staining based flow cytometric analysis (reference value: 96.4%); assay type: toxicity, cell-based; details: read-out: Activity
[17] = Cytotoxicity against mouse RAW264.7 cells assessed as survival rate at 2.5 uM incubated overnight by CCK-8 assay relative to control; assay type: toxicity, cell-based; details: read-out: Survival
RAW264.7 [18] = experiment: Anti-inflammatory activity in mouse RAW264.7 cells assessed as inhibition of LPS-induced IL-6 production at 2.5 uM pretreated with compound for 2 hrs followed by LPS addition and measured after 22 hrs by ELISA relative to control; assay type: functional; details: time 24 hrs
RAW264.7 [19] = experiment: Anti-inflammatory activity in mouse RAW264.7 cells assessed as inhibition of LPS-induced TNF-alpha production at 2.5 uM pretreated with compound for 2 hrs followed by LPS addition and measured after 22 hrs by ELISA relative to control; assay type: functional; details: time 24 hrs
[20] = molecular target: NACHT, LRR and PYD domains-containing protein 3 (Mus musculus) (UniProt Q8R4B8); experiment: Inhibition of NLRP3 inflammasome activation in LPS-induced mouse RAW264.7 cells assessed as reduction in ROS production by measuring intracellular ROS level at 1.5 uM incubated for 24 hrs by DCFH-DA staining based flow cytometric analysis (reference value: 42.0%); assay type: cell-based; parameters: scale not given: the % may be the effect or the level left
RAW264.7 [21] = experiment: Induction of apoptosis in mouse RAW264.7 cells assessed as apoptotic cells at 1.5 uM by Annexin V-FITC/PI staining based flow cytometric analysis (reference value: 1.9%); assay type: toxicity, cell-based; details: raw264.7, 1.5 µM
RAW264.7 [22] = experiment: Induction of apoptosis in mouse RAW264.7 cells assessed as apoptotic cells at 3.0 uM by Annexin V-FITC/PI staining based flow cytometric analysis (reference value: 1.9%); assay type: toxicity, cell-based; details: raw264.7, 3 µM

Sequence of NACHT, LRR and PYD domains-containing protein 3 (Mus musculus) (Q8R4B8 whole entry, the tested form may be a part): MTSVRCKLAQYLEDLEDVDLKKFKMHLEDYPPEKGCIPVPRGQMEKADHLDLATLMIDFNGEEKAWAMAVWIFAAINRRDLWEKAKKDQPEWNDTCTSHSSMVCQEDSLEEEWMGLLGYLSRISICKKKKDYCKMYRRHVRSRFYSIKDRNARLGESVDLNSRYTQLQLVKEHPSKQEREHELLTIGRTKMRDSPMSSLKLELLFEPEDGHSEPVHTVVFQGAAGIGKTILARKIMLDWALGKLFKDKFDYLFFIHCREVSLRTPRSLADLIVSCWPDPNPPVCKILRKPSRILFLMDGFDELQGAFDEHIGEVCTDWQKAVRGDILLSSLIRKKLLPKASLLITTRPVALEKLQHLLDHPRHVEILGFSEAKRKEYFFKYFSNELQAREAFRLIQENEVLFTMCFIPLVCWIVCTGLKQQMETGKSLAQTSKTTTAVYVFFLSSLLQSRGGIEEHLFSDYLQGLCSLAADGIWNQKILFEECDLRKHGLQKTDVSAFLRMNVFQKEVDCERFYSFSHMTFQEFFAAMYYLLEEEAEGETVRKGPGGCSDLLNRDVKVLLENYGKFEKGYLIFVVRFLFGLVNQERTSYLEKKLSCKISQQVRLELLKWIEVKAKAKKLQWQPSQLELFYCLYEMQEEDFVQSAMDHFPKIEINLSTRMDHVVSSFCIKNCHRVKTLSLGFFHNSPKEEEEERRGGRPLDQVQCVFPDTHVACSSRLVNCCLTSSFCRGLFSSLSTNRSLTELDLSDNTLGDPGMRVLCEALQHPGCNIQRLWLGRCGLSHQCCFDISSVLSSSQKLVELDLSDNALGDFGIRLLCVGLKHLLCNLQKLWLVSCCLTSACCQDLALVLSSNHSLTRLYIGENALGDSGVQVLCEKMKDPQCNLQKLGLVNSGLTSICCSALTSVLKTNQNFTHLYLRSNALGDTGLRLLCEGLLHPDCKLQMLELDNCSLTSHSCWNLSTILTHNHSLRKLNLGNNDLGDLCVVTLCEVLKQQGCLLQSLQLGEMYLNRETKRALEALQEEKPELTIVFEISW
Sequence of Transcription factor p65 (Mus musculus) (Q04207 whole entry): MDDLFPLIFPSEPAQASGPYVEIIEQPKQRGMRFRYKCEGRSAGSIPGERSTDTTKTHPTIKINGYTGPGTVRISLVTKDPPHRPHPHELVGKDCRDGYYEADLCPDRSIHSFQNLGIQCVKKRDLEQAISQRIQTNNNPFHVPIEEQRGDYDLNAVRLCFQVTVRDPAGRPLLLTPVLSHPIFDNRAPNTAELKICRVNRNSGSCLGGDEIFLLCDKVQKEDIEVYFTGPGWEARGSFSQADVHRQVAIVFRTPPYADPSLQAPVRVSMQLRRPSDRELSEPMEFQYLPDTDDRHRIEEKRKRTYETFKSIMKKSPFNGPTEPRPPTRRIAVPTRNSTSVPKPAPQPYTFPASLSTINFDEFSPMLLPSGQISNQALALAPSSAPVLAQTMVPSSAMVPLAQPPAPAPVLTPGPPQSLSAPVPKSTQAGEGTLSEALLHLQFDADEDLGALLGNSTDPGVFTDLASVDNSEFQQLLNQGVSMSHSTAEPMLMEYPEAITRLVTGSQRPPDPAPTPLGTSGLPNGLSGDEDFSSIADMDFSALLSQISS

## CN1CCN(c2ccc(/C=C3\CCc4ccc(Br)cc4C3=O)nc2)CC1
[1]
  inhibition: Active
[2]
  Activity: 19.9%
[3]
  inhibition: Dose-Dependent Effect
RAW264.7 [4]
  Activity: Dose-Dependent Effect
RAW264.7 [5]
  Activity: Dose-Dependent Effect
RAW264.7 [6]
  inhibition: Dose-Dependent Effect
[7]
  viability at 1.5 µM: 94.4%
RAW264.7 [8]
  inhibition: Dose-Dependent Effect
[9]
  inhibition: Active
RAW264.7 [10]
  Activity: Dose-Dependent Effect
RAW264.7 [11]
  Activity: 6.8%
[12]
  inhibition: Active
[13]
  viability at 6 µM: 91.6%
[14]
  Activity: 31.8%
RAW264.7 [15]
  Activity: Dose-Dependent Effect
[16]
  viability at 3 µM: 92.8%
[17]
  viability at 2.5 µM: 108%
RAW264.7 [18]
  inhibition at 2.5 µM: 69.2%
RAW264.7 [19]
  inhibition at 2.5 µM: 81.4%
[20]
  Activity: 36.4%
RAW264.7 [21]
  Activity: 3.8%
RAW264.7 [22]
  Activity: 5.6%
